Test: xn = mol fraction of the nth substance listed
Conditions: 101 kPa, Liquid

CC1COC(=O)O1 (centres undefined) [4-methyl-1,3-dioxolan-2-one] + CCOS(=O)(=O)[O-].CCn1cc[n+](C)c1
mass density [kg/m3]
Conditions | 278.15 K | 283.15 K | 288.15 K | 293.15 K | 298.15 K | 303.15 K | 308.15 K
x1 = 0.0266 | 1250.69 | 1247.12 | 1243.68 | 1240.27 | 1236.86 | 1233.45 | 1230.06
x1 = 0.0513 | 1250.41 | 1246.82 | 1243.39 | 1239.97 | 1236.53 | 1233.11 | 1229.69
x1 = 0.0755 | 1250.13 | 1246.55 | 1243.1 | 1239.64 | 1236.19 | 1232.74 | 1229.3
x1 = 0.1231 | 1249.6 | 1246.04 | 1242.54 | 1239.04 | 1235.55 | 1232.06 | 1228.58
x1 = 0.1825 | 1248.89 | 1245.35 | 1241.79 | 1238.2 | 1234.68 | 1231.13 | 1227.6
x1 = 0.2548 | 1248.05 | 1244.41 | 1240.76 | 1237.11 | 1233.49 | 1229.88 | 1226.27
x1 = 0.3178 | 1247.17 | 1243.45 | 1239.73 | 1236.01 | 1232.32 | 1228.64 | 1224.96
x1 = 0.3778 | 1246.4 | 1242.61 | 1238.81 | 1235.04 | 1231.27 | 1227.52 | 1223.78
x1 = 0.4859 | 1244.38 | 1240.42 | 1236.47 | 1232.54 | 1228.62 | 1224.71 | 1220.83
x1 = 0.5725 | 1242.6 | 1238.5 | 1234.4 | 1230.34 | 1226.28 | 1222.25 | 1218.22
x1 = 0.6971 | 1239.08 | 1234.73 | 1230.4 | 1226.09 | 1221.79 | 1217.52 | 1213.25
x1 = 0.7812 | 1235.9 | 1231.35 | 1226.82 | 1222.31 | 1217.81 | 1213.33 | 1208.86
x1 = 0.8427 | 1232.95 | 1228.23 | 1223.51 | 1218.83 | 1214.15 | 1209.49 | 1204.84
x1 = 0.8893 | 1230.36 | 1225.48 | 1220.62 | 1215.78 | 1210.95 | 1206.14 | 1201.34
x1 = 0.9259 | 1227.81 | 1222.79 | 1217.79 | 1212.81 | 1207.84 | 1202.89 | 1197.94
x1 = 0.9554 | 1225.35 | 1220.2 | 1215.07 | 1209.96 | 1204.85 | 1199.76 | 1194.68
x1 = 0.9797 | 1223.22 | 1217.97 | 1212.73 | 1207.51 | 1202.3 | 1197.09 | 1191.9
x1 = 1 | 1220.93 | 1215.57 | 1210.21 | 1204.88 | 1199.55 | 1194.23 | 1188.91

CO [methanol] + CCOS(=O)(=O)[O-].CCn1cc[n+](C)c1
x1 = 1
Conditions | mass density [kg/m3]
278.15 K | 805.53
283.15 K | 800.85
288.15 K | 796.16
293.15 K | 791.49
298.15 K | 786.77
303.15 K | 782.05
308.15 K | 777.3

CCOS(=O)(=O)[O-].CCn1cc[n+](C)c1 [1-ethyl-3-methylimidazolium ethyl sulfate] + O
mass density [kg/m3]
Conditions | 278.15 K | 283.15 K | 288.15 K | 293.15 K | 298.15 K | 303.15 K | 308.15 K
x2 = 0 | 1250.63 | 1247.18 | 1243.79 | 1240.39 | 1237 | 1233.63 | 1230.27
x2 = 0.0136 | 1250.46 | 1246.91 | 1243.47 | 1240.09 | 1236.7 | 1233.31 | 1229.93
x2 = 0.0253 | 1250.19 | 1246.63 | 1243.21 | 1239.82 | 1236.42 | 1233.03 | 1229.65
x2 = 0.0415 | 1249.8 | 1246.24 | 1242.85 | 1239.46 | 1236.06 | 1232.67 | 1229.29
x2 = 0.0729 | 1249.17 | 1245.66 | 1242.27 | 1238.88 | 1235.48 | 1232.09 | 1228.7
x2 = 0.1429 | 1247.67 | 1244.26 | 1240.85 | 1237.44 | 1234.04 | 1230.64 | 1227.25
x2 = 0.2344 | 1245.53 | 1242.12 | 1238.69 | 1235.28 | 1231.86 | 1228.46 | 1225.06
x2 = 0.392 | 1239.94 | 1236.5 | 1233.06 | 1229.63 | 1226.2 | 1222.78 | 1219.36
x2 = 0.5695 | 1228.84 | 1225.35 | 1221.87 | 1218.47 | 1214.98 | 1211.55 | 1208.12
x2 = 0.7408 | 1207.89 | 1204.4 | 1200.9 | 1197.39 | 1193.86 | 1190.33 | 1186.78
x2 = 0.9032 | 1149.37 | 1146.18 | 1142.95 | 1139.65 | 1136.37 | 1133.02 | 1129.61
x2 = 0.9577 | 1094.19 | 1091.9 | 1089.5 | 1086.99 | 1084.4 | 1081.7 | 1078.89
x2 = 0.984 | 1045.11 | 1043.88 | 1042.43 | 1040.71 | 1038.74 | 1036.44 | 1033.81
x2 = 0.9923 | 1023.67 | 1022.91 | 1021.88 | 1020.61 | 1019.12 | 1017.42 | 1015.54
x2 = 0.9963 | 1012.18 | 1011.69 | 1010.85 | 1009.45 | 1008.24 | 1006.56 | 1004.39

CC(C)=O [acetone] + CCOS(=O)(=O)[O-].CCn1cc[n+](C)c1
x1 = 1
Conditions | mass density [kg/m3]
278.15 K | 807.75
283.15 K | 802.15
288.15 K | 796.52
293.15 K | 790.86
298.15 K | 785.13
303.15 K | 779.38
308.15 K | 773.58

CCOS(=O)(=O)[O-].CCn1cc[n+](C)c1 [1-ethyl-3-methylimidazolium ethyl sulfate] + CCO
mass density [kg/m3]
Conditions | 278.15 K | 283.15 K | 288.15 K | 293.15 K | 298.15 K | 303.15 K | 308.15 K
x2 = 0 | 1251.4 | 1247.84 | 1244.39 | 1241.01 | 1237.63 | 1234.24 | 1230.87
x2 = 0.016 | 1249.64 | 1246.08 | 1242.65 | 1239.25 | 1235.85 | 1232.45 | 1229.05
x2 = 0.0254 | 1248.22 | 1244.65 | 1241.24 | 1237.84 | 1234.43 | 1231.03 | 1227.63
x2 = 0.0425 | 1246.12 | 1242.58 | 1239.16 | 1235.76 | 1232.34 | 1228.94 | 1225.53
x2 = 0.0877 | 1240.95 | 1237.47 | 1234.04 | 1230.59 | 1227.18 | 1223.75 | 1220.34
x2 = 0.1178 | 1235.48 | 1232.05 | 1228.59 | 1225.14 | 1221.7 | 1218.26 | 1214.84
x2 = 0.142 | 1231.31 | 1227.85 | 1224.38 | 1220.92 | 1217.47 | 1214.02 | 1210.59
x2 = 0.2344 | 1216.31 | 1212.79 | 1209.28 | 1205.78 | 1202.3 | 1198.83 | 1195.36
x2 = 0.4236 | 1174.57 | 1170.96 | 1167.36 | 1163.79 | 1160.21 | 1156.65 | 1153.1
x2 = 0.6005 | 1116.78 | 1113.06 | 1109.36 | 1105.67 | 1101.99 | 1098.32 | 1094.66
x2 = 0.7305 | 1055.36 | 1051.54 | 1047.72 | 1043.92 | 1040.12 | 1036.36 | 1032.55
x2 = 0.833 | 987.08 | 983.14 | 979.21 | 975.3 | 971.37 | 967.46 | 963.54
x2 = 0.9022 | 925.53 | 921.55 | 917.81 | 913.45 | 910.22 | 906.22 | 902.18
x2 = 0.9567 | 863.73 | 860.74 | 856.8 | 851.32 | 848.59 | 844.44 | 840.27
x2 = 0.9846 | 826.39 | 822.21 | 818.01 | 813.81 | 809.59 | 805.36 | 801.09
x2 = 0.9924 | 814.42 | 810.28 | 806.17 | 801.75 | 797.8 | 793.53 | 789.23
x2 = 0.9963 | 808.01 | 803.79 | 799.55 | 795.3 | 791.03 | 786.74 | 782.41
